# “And” between values parts separate entries of the source, which are not always exact repeats. Identical values can stand only once.
# How the values were obtained:
# Kv7.2/Kv7.3 channels = Kv7.2/Kv7.3 channels (Homo sapiens, UniProt O43525+O43526); experiment: FluxOR thallium-sensitive fluorescence-based assay in CHO cells stably expressing Kv7.2 + Kv7.3; type: cell-based; design: expressed in transfected cells; conditions: 10 μM; for Kv7 opening activity (in words): compared with retigabine or the reference compound of the subseries; for Slope of the fluorescent signal at 10 μM: initial slope of FluxOR signal between 5 and 15 s, mean ± SEM
# Protocol: While assay robustness in Kv7.2/Kv7.3-expressing cells was high (Z′ factor > 0.5),[27] the Z′ factor calculated in CHO cells expressing Kv7.2 subunits alone was <0.5; thus, all subsequent pharmacological screens were performed in Kv7.2/Kv7.3-expressing cells. […] The Kv7.2/Kv7.3-stable cell line was generated using a plasmid-based PiggyBac transposon system that enables genomic integration of multiple independent transposons containing distinct cDNA sequences. cDNAs for KCNQ2 and KCNQ3 genes (encoding for Kv7.2 and Kv7.3, respectively) were cloned into two different PiggyBac expression vectors (pB-CMV-MCS-EF1α-RedPuro, System Biosciences), and these two plasmids, together with a plasmid encoding for the transposase (System Biosciences), were transfected into CHO cells using Lipofectamine 2000 (Invitrogen) as indicated in the protocol provided by the seller company.
# The selected clone stably expressing Kv7.2/Kv7.3 channels was grown in DMEM supplemented with 10% FBS, 50 U/mL Pen-Strep, 2 mM L-glutamine (all purchased from Gibco), and 4 μg/mL puromycin (Sigma) in a humidified atmosphere at 37 °C with 5% CO2. […] A kinetic dispense microplate reader (FLUOstar Optima) was used to read the plate, setting the excitation filter at 485 nm and the emission filter at 520 nm; “Stimulus buffer” prepared as indicated in the protocol was automatically added to wells after 5 s of recording; the plate was read every 1 s, for 50 s. The results were analyzed using Optima Data Analysis and Microsoft Excel.
# Only experiments resulting in a Z′ > 0.5 were considered. Data shown (Figures 1D,E,F,G and 3B) were obtained from at least three independent experiments.
# Data were analyzed using the GraphPad Prism 8.0.2 (GraphPad Software, LaJolla, CA). Statistically significant differences in the initial slope of the curves were evaluated through ordinary one-way ANOVA, and multiple comparisons were corrected with the Tukey test. […] Indicated EC50 values are the mean of at least three independent experiments ± standard error of the mean (SEM).
# [1] = Photostability under UV-visible light with HPLC analysis (degradation, dimer formation); type: physicochemical; conditions: for % Degradation (3h, UV): 10 μM, buffered aqueous solution pH 7.4, 3 h UV-visible light, ± SD; for Dimers Formation: HPLC at 550 nm
# Description: Two different HPLC wavelengths were utilized: (a) […] to evaluate the decreased concentration of the starting molecule; (b) 550 nm to investigate the formation of phenazine/phenazinium dimers, as previously described.[10] Unfortunately, dimer formation was detected for all tested compounds, except for 23 and 24. […]. […]. The first group consisted of N4 (−X- in Table 2) substituted analogues, in which the tertiary amine is unavailable for the formation of phenazine dimers (compounds 25–28). […]. The third group included derivatives replacing hydrogen atoms with electron-withdrawing fluorine atoms at position R2 of the benzene-1,2,4-triamine core scaffold (compounds 59, 60), a strategy likely reducing the reactivity of N2 and N4. […].
# Photostability experiments were performed by dissolving compounds in DMSO and then diluting in buffered aqueous solutions at pH 7.4 to a final concentration of 10 μM. 1 cm quartz cells, filled with the abovementioned solutions, were irradiated by a UV lamp (UV Consulting TQ 150 equipped with Duran 50 sleeve and 150 W power supply unit, Peschl, Germany) at a fixed distance of 20 cm from the UV source. Control samples were maintained at 37 °C, wrapped with aluminum foil to avoid light exposure, and used to assess chemical stability of the compounds. At predetermined intervals, aliquots were withdrawn and analyzed by UHPLC in order to assess the concentration decrease of the starting materials and the presence of the dimers usually formed by retigabine.
# Photostability and chemical stability experiments were carried out on a Kinetex^TM C18 150 × 2.1 mm × 2.6 μm (100 Å) column (Phenomenex, Bologna, Italy). The optimal mobile phase consisted of 0.1% TFA/H2O v/v (A) and 0.1% TFA/ACN v/v (B). Analysis was performed in gradient elution as follows: 0–13.0 min, 5–65% B; 13–14.0 min, 65–95% B; 14–15.0 min, isocratic to 95% B; 15–15.01 min, 95–5% B; then 3 min for column re-equilibration. The flow rate was 0.5 mL min^–1. The column oven temperature was set to 45 °C. The injection volume was 7 μL of sample. The following PDA parameters were applied: sampling rate, 12.5 Hz; detector time constant, 0.160 s; cell temperature, 40 °C. Data acquisition was set in the range 190–800 nm, and chromatograms were monitored at 224 nm to assess the decrease in concentration of the starting material, while a wavelength of 550 nm was used to eventually detect dimerization.
Kv7 opening activity (in words) (Kv7.2/Kv7.3 channels),Slope of the fluorescent signal at 10 μM (Kv7.2/Kv7.3 channels),"% Degradation (3h, UV) [1]",Dimers Formation ([1]; 3 h UV-visible light),Compound,"Photodegradation (in words) ([1]; 3 h UV-visible light, compared with retigabine)"
failed to activate Kv7.2/ Kv7.3 channels,0.0057±0.0005,–,–,"CCCCCCC(=O)Nc1ccc(OCc2ccc(C(F)(F)F)cc2)cc1N [compound 31, N-(2-Amino-4-((4-(trifluoromethyl)benzyl)oxy)phenyl)heptanamide]",–
–,0.0512±0.0040,79.8 ± 4.2%,Yes,"CC(C)(C)CC(=O)Nc1ccc(NCc2ccc(C(F)(F)F)cc2)cc1N [compound 17, N-(2-Amino-4-((4-(trifluoromethyl)benzyl)amino)phenyl)-3,3-dimethylbutanamide]",–
markedly reduced activity,0.0138±0.0024,–,–,"CCCCCCC(=O)Nc1ccc(N(Cc2ccc(C(F)(F)F)cc2)C(C)=O)cc1N [compound 28, N-(2-Amino-4-(N-(4-(trifluoromethyl)benzyl)acetamido)phenyl)heptanamide]",–
similar,0.0345±0.0026,–,–,"CCCCCCC(=O)Nc1ccc(NCc2ccc(C(F)(F)F)cc2)c(F)c1N [compound 59, N-(2-Amino-3-fluoro-4-((4-(trifluoromethyl)benzyl)amino)phenyl)heptanamide]",–
complete loss of activity,0.0062±0.0005,–,–,"COCCOCC(=O)Nc1ccc(NCc2ccc(C(F)(F)F)cc2)cc1N [compound 20, N-(2-Amino-4-((4-(trifluoromethyl)benzyl)amino)phenyl)-2-(2-methoxyethoxy)acetamide]",–
no change in activity,0.0448±0.0035,74.9± 0.1%,Yes,"CCCCCCC(=O)Nc1ccc(NCc2ccccc2F)cc1N [compound 52, N-(2-Amino-4-((2-fluorobenzyl)amino)phenyl)heptanamide]",–
–,0.0443±0.0049,30.6 ± 2.2%,Yes,"CCCCCCC(=O)Nc1ccc(NCc2ccc(C(F)(F)F)cc2)cc1N [compound 13, N-(2-Amino-4-((4-(trifluoromethyl)benzyl)amino)phenyl)heptanamide]",–
still displayed strong activity,0.0534±0.0028,98.4±0.2%,Yes,"CC(C)(C)CC(=O)Nc1ccc(NCc2c(F)cccc2F)cc1N [compound 43, N-(2-Amino-4-((2,6-difluorobenzyl)amino)phenyl)-3,3-dimethylbutanamide]",–
–,0.0346±0.0078,–,–,"Nc1cc(NCc2ccc(C(F)(F)F)cc2)ccc1NC(=O)C1CC1 [compound 18, N-(2-Amino-4-((4-(trifluoromethyl)benzyl)amino)phenyl)cyclopropanecarboxamide]",–
complete loss of activity,0.0063±0.0002,–,–,"CCCCCCC(=O)Nc1ccc(NCc2ccncc2)cc1N [compound 51, N-(2-Amino-4-((pyridin-4-ylmethyl)amino)phenyl)heptanamide]",–
did not improve activity,0.0363±0.0052,–,–,"CCCCCCC(=O)Nc1ccc(N(CCC)Cc2ccc(C(F)(F)F)cc2)cc1N [compound 27, N-(2-Amino-4-(propyl(4-(trifluoromethyl)benzyl)amino)phenyl)heptanamide]",–
complete loss of activity,0.0066±0.0006,–,–,"CCCCCCNC(=O)c1ccc(NCc2ccc(C(F)(F)F)cc2)cc1N [compound 71, 2-Amino-N-hexyl-4-((4-(trifluoromethyl)benzyl)amino)benzamide]",–
failed to activate Kv7.2/ Kv7.3 channels,0.0073±0.0005,–,–,"CC(C)(C)CC(=O)Nc1ccc(CCc2ccc(C(F)(F)F)cc2)cc1N [compound 68, N-(2-Amino-4-(4-(trifluoromethyl)phenethyl)phenyl)-3,3-dimethylbutanamide]",–
complete loss of activity,0.0068±0.0003,–,–,"CCCCCCC(=O)Nc1ccc(NCc2ccc(O)cc2)cc1N [compound 57, N-(2-Amino-4-((4-hydroxybenzyl)amino)phenyl)heptanamide]",–
complete loss of activity,0.0071±0.0004,–,–,"CCCCCCC(=O)Nc1ccc(NCc2ccccn2)cc1N [compound 47, N-(2-Amino-4-((pyridin-2-ylmethyl)amino)phenyl)heptanamide]",–

Compound,Kv7 opening activity (in words) (Kv7.2/Kv7.3 channels),Slope of the fluorescent signal at 10 μM (Kv7.2/Kv7.3 channels),"% Degradation (3h, UV) [1]",Dimers Formation ([1]; 3 h UV-visible light),"Photodegradation (in words) ([1]; 3 h UV-visible light, compared with retigabine)"
"CC(C)(C)CC(=O)Nc1ccc(NCc2ccc(C(F)(F)F)cc2)cc1N1CCCC1 [compound 23, 3,3-Dimethyl-n-(2-(pyrrolidin-1-yl)-4-((4-(trifluoromethyl)benzyl)amino)phenyl)butanamide]",comparable to that of the reference compound 17,0.0772±0.0036,97.7± 1.0%,inability of compounds 23 and 24 to form dimers and No,enhanced degradation when compared to retigabine
"CCCCCCC(=O)Nc1ccc(NCc2ccc(C(F)(F)F)cc2)cc1 [compound 2, N-(4-((4-(Trifluoromethyl)benzyl)amino)phenyl)heptanamide]",still active although with slightly lower efficacy,0.0326±0.0063,–,–,–
N-(2-Amino-4-(4-(trifluoromethyl)phenethyl)phenyl)heptanamide [compound 67],failed to activate Kv7.2/ Kv7.3 channels,0.0087±0.0002,–,–,–
"CCCCCCC(=O)Nc1ccc(NCCc2ccc(F)cc2)cc1N [compound 42, N-(2-Amino-4-((4-fluorophenethyl)amino)phenyl)heptanamide]",complete loss of activity,0.0098±0.0010,–,–,–
"CCCCCCCCCCCC(=O)Nc1ccc(NCc2ccc(C(F)(F)F)cc2)cc1N [compound 16, N-(2-Amino-4-((4-(trifluoromethyl)benzyl)amino)phenyl)dodecanamide]",progressive decrease in Kv7 opening ability,0.0084±0.0004,–,–,–
"CCCCCCCCCC(=O)Nc1ccc(NCc2ccc(C(F)(F)F)cc2)cc1N [compound 15, N-(2-Amino-4-((4-(trifluoromethyl)benzyl)amino)phenyl)decanamide]",progressive decrease in Kv7 opening ability,0.0261±0.0030,–,–,–
